# Assay results: publication PMC9719519, “Non-classical ferroptosis inhibition by a small molecule targeting PHB2” (Nature Communications, 2022)
# Assays:
# Test in all cases: biochemical
# Set-up in all cases: Eurofins recombinant human kinase profiling, remaining kinase activity as % of control, 10 uM ATP
# Conditions in all cases: ATP 10 uM; read-out: %Ctrl@10 μM
# [1] = molecular target: Lyn(h) (Homo sapiens, UniProt P07948)
# From the text: (§1) To rapidly determine the biological target of YL-939, we first tested the activity of YL-939 against a panel of 401 recombinant human protein kinases by using the kinase profiling assay provided by Eurofins, since kinases are often the key components in various signal pathways[35],[36]. […] We then carried out affinity-based proteome profiling assay (ABPP) coupled with bioimaging to identify the biological target of YL-939 (Fig. 4A). To this end, we designed and synthesized a photoaffinity probe, YL-939-1 (Fig. 4A and Supplementary Fig. 5), which is YL-939 attached by a photo-crosslinker (L3) that contains a photo-reactive group diazirine and a clickable alkyne handle.
# [2] = molecular target: T1, PKBβ(h) (Homo sapiens, UniProt P31751)
# T1 construct: gene AKT2
# From the text: as §1
# [3] = molecular target: T2, HRI(h) (Homo sapiens, UniProt Q9BQI3)
# T2 construct: gene EIF2AK1
# From the text: as §1
# [4] = molecular target: DYRK1B(h) (Homo sapiens, UniProt Q9Y463)
# Chain of DYRK1B(h) (Q9Y463 whole entry): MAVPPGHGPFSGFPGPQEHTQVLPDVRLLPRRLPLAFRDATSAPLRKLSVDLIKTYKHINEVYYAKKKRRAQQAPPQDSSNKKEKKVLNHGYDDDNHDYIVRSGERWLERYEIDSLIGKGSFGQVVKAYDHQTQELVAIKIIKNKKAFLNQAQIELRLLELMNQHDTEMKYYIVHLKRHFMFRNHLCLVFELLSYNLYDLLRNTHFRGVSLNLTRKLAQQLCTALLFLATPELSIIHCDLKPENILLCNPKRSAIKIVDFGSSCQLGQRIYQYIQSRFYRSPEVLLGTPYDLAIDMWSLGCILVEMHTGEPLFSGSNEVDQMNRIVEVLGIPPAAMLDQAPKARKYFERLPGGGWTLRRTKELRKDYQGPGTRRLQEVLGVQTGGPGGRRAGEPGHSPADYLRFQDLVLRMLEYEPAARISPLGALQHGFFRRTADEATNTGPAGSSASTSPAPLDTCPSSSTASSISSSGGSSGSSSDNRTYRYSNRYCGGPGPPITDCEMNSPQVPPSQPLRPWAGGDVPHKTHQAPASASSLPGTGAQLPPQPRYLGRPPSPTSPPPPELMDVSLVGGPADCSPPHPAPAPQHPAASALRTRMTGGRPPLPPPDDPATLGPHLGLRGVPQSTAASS
# From the text: as §1
# [5] = molecular target: PAK3(h) (Homo sapiens, UniProt O75914)
# From the text: as §1
# [6] = molecular target: T3, PRK1(h) (Homo sapiens, UniProt Q16512)
# T3 construct: gene PKN1
# From the text: as §1
# [7] = molecular target: Flt4(h) (Homo sapiens, UniProt P35916)
# Chain of Flt4(h) (P35916 whole entry): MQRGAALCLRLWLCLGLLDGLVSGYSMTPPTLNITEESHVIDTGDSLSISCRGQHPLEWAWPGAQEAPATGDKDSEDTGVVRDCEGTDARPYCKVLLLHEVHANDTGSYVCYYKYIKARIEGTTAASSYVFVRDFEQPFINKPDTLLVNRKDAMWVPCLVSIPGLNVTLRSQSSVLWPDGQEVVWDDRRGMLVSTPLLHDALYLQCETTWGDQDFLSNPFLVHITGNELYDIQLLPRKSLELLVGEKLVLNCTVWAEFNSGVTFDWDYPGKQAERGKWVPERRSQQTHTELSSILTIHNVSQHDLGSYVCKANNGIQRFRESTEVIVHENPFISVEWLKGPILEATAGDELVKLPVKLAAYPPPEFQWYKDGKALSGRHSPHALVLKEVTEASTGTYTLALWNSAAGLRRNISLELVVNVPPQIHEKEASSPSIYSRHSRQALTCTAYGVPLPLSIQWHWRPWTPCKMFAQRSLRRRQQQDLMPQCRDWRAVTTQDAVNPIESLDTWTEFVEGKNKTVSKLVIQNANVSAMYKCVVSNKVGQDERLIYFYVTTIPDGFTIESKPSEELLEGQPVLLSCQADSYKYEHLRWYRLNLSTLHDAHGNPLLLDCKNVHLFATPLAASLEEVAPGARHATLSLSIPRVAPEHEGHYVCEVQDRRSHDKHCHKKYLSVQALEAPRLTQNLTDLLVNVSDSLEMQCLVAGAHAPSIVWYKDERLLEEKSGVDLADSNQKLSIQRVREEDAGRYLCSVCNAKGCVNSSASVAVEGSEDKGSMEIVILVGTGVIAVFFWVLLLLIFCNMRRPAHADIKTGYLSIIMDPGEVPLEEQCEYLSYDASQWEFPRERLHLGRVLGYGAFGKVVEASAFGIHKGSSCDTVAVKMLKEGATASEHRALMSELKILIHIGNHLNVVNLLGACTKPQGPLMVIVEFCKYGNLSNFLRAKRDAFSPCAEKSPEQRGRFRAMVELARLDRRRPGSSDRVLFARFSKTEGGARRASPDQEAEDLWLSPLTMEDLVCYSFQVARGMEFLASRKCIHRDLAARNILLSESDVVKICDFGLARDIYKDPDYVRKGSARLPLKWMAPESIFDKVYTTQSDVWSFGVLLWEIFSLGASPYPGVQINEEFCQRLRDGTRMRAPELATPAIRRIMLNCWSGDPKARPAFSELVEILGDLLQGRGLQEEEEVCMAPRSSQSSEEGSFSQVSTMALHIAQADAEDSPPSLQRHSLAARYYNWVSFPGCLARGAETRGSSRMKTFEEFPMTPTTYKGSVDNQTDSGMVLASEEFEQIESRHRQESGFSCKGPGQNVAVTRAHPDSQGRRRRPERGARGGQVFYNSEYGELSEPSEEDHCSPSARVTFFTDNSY
# From the text: as §1
# [8] = molecular target: T4, Tie2(Y897S)(h) (Homo sapiens, UniProt Q02763, Y897S)
# T4 construct: gene TEK
# From the text: as §1
# [9] = molecular target: T5, SAPK2b(h) (Homo sapiens, UniProt Q15759)
# T5 construct: gene MAPK11
# From the text: as §1
# [10] = molecular target: LRRK2(h) (Homo sapiens, UniProt Q5S007)
# From the text: as §1
# [11] = molecular target: Src(T341M)(h) (Homo sapiens, UniProt P12931, T341M)
# From the text: as §1
# [12] = molecular target: STK33(h) (Homo sapiens, UniProt Q9BYT3)
# Chain of STK33(h) (Q9BYT3 whole entry): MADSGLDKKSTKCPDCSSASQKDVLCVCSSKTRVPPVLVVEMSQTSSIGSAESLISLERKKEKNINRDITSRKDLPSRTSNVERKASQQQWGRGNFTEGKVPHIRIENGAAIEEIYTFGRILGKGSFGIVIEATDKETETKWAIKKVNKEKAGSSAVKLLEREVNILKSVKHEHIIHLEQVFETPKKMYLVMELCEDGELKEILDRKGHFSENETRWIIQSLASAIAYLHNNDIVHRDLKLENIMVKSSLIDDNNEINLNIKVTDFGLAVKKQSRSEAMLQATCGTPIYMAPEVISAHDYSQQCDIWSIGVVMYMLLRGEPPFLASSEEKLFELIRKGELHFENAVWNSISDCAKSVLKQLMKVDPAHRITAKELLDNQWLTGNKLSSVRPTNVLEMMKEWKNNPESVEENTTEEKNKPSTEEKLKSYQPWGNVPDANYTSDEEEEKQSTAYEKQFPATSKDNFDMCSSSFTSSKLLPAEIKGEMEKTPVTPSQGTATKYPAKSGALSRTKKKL
# From the text: as §1
# [13] = molecular target: T6, MSK1(h) (Homo sapiens, UniProt O75582)
# T6 construct: gene RPS6KA5
# From the text: as §1
# [14] = molecular target: T7, ACK1(h) (Homo sapiens, UniProt Q07912)
# T7 construct: gene TNK2
# From the text: as §1
# [15] = molecular target: IRAK1(h) (Homo sapiens, UniProt P51617)
# From the text: as §1
# [16] = molecular target: T8, MST2(h) (Homo sapiens, UniProt Q13188)
# T8 construct: gene STK3
# T8 sequence (Q13188 whole entry): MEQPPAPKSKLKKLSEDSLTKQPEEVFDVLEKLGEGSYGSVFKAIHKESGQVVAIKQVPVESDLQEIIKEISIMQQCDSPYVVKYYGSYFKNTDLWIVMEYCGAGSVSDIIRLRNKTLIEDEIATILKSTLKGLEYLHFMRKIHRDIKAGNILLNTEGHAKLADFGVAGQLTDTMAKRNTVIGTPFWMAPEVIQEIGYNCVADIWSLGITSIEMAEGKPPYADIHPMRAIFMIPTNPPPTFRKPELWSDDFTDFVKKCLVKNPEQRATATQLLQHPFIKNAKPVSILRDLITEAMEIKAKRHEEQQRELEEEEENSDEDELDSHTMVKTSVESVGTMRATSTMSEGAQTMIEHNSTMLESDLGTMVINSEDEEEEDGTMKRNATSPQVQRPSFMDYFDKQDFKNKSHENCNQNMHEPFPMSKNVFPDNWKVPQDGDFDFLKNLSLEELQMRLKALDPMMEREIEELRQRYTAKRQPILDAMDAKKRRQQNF
# From the text: as §1
# [17] = molecular target: CDK7/cyclinH/MAT1(h) (Homo sapiens, UniProt P50613)
# From the text: as §1
# [18] = molecular target: ErbB2(h) (Homo sapiens, UniProt P04626)
# Chain of ErbB2(h) (P04626 whole entry): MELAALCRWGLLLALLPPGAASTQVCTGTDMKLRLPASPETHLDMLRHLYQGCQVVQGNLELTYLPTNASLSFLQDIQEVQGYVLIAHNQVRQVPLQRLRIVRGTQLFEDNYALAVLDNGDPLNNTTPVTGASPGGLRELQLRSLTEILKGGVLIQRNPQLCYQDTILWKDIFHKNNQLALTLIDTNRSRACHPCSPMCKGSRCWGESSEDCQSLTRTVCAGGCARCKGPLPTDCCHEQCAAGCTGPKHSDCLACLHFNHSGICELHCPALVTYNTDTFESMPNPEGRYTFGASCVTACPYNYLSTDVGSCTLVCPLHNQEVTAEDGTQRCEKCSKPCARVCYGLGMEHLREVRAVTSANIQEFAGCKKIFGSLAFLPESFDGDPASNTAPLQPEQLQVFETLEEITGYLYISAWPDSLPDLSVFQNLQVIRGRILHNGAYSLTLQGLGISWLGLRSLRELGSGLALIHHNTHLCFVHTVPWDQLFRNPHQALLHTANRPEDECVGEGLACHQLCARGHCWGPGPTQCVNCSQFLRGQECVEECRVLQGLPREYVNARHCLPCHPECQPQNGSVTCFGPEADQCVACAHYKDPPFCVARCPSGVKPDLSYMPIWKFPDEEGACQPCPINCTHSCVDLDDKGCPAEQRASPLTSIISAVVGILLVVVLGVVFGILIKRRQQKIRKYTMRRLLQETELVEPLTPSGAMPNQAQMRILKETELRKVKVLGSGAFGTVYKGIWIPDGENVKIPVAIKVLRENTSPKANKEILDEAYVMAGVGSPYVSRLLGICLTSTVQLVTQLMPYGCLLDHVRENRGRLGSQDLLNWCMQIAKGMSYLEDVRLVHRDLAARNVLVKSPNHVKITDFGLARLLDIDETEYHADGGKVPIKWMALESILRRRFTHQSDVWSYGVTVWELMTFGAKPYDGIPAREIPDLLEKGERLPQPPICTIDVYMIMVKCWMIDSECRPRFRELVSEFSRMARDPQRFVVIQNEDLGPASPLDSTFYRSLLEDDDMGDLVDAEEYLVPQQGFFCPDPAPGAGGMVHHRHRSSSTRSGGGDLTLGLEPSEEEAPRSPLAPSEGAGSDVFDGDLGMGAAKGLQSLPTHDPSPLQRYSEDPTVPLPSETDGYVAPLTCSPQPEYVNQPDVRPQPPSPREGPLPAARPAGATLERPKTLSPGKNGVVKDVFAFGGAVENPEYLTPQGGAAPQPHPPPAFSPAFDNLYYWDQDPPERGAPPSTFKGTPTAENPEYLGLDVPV
# From the text: as §1
# [19] = molecular target: CDK6/cyclinD3(h) (Homo sapiens, UniProt Q00534)
# Chain of CDK6/cyclinD3(h) (Q00534 whole entry): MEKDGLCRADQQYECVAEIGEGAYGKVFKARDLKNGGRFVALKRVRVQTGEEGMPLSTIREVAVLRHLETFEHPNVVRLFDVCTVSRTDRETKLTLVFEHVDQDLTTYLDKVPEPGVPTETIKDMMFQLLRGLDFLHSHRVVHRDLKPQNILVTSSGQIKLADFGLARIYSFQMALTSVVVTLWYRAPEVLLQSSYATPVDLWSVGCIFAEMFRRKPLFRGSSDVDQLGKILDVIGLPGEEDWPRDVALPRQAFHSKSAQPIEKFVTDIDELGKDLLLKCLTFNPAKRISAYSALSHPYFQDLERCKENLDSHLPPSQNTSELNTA
# Chain of CDK6/cyclinD3(h) (P30281 whole entry partner): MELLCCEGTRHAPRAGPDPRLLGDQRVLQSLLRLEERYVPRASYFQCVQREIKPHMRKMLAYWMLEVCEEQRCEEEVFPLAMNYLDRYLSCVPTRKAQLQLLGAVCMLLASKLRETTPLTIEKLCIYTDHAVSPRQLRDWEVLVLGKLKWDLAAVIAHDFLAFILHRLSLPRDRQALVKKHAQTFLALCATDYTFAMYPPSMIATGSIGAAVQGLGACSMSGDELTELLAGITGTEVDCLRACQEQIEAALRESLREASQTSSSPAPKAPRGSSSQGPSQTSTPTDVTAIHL
# From the text: as §1
# [20] = molecular target: Ret(h) (Homo sapiens, UniProt P07949)
# From the text: as §1
# [21] = molecular target: mTOR/FKBP12(h) (Homo sapiens, UniProt P42345)
# From the text: as §1
# [22] = molecular target: T9, MKK3(h) (Homo sapiens, UniProt P46734)
# T9 construct: gene MAP2K3
# From the text: as §1
# [23] = molecular target: T10, MSSK1(h) (Homo sapiens, UniProt Q9UPE1)
# T10 construct: gene SRPK3
# From the text: as §1
structure (smiles),measurement,setting,value
C1=C(c2nc(-c3cnn(C4CCNCC4)c3)cn3cc(-c4ccccc4)nc23)CCOC1 [YL-939],remaining activity at 10 µM,[1],95%
same,remaining activity at 10 µM,[2],87%
same,remaining activity at 10 µM,[3],111%
same,remaining activity at 10 µM,[4],97%
same,remaining activity at 10 µM,[5],70%
same,remaining activity at 10 µM,[6],96%
same,remaining activity at 10 µM,[7],85%
same,remaining activity at 10 µM,[8],91%
same,remaining activity at 10 µM,[9],84%
same,remaining activity at 10 µM,[10],103%
same,remaining activity at 10 µM,[11],100%
same,remaining activity at 10 µM,[12],105%
same,remaining activity at 10 µM,[13],79%
same,remaining activity at 10 µM,[14],85%
same,remaining activity at 10 µM,[15],118%
same,remaining activity at 10 µM,[16],78%
same,remaining activity at 10 µM,[17],92%
same,remaining activity at 10 µM,[18],72%
same,remaining activity at 10 µM,[19],94%
same,remaining activity at 10 µM,[20],123%
same,remaining activity at 10 µM,[21],88%
same,remaining activity at 10 µM,[22],107%
same,remaining activity at 10 µM,[23],87%
